In PubChem BioAssay AID2060619 (Molecular Pharmacology Branch, DTP, NCI, 2025):
Several values for one entry are separate records, joined by “and”; a condition that tells them apart may be missing. Identical values can stand only once.

Tested on: 323965-272-R-J2-PDC complex spheroid viability
Test: Anticancer human tumor 323965-272-R-J2-PDC patient-derived pancreatic carcinoma cell line growth inhibition [CLK]
Conditions: for viability, T/C: stronger effect = lower value
How it was run: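 Patient-derived tumor cells grown as complex spheroids with HUVEC endothelial cells and mesenchymal stem cells, treated with drug combinations. Concentrations descend in half-log steps from near clinical Cmax, or from 10 microM if Cmax unknown.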

[1] = curve of first compound, second compound 0.0316 µM
[2] = curve of first compound, second compound 0.1 µM
[3] = curve of first compound, second compound 0.316 µM
[4] = curve of first compound, second compound 1 µM
[5] = curve of first compound, second compound 3.16 µM
[6] = curve of first compound, second compound 10 µM
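Note: spheroids exposed to agents for seven days before readout.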
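Throughout, for viability, T/C: percent of DMSO vehicle control wells so 100% = untreated growth.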

NC(=O)C(=Cn1cnc(-c2cc(C(F)(F)F)cc(C(F)(F)F)c2)n1)c1cncnc1 + CN1CCN(c2cc(C(=O)Nc3cc4cc(-c5cnn(C)c5)ccc4cn3)ccn2)CC1 showed an IC50 [1] of 907 nM, an IC50 [2] of 365 nM and an IC50 [3] of under 9.49 nM. It also gave an IC50 [4] of under 9.49 nM, an IC50 [5] of under 9.49 nM and an IC50 [6] of under 9.49 nM. It also gave a viability, T/C (second compound 0.0316 µM, first compound 0.00949 µM) of 99.5%, a viability, T/C (second compound 0.0316 µM, first compound 0.03 µM) of 100% and a viability, T/C (second compound 0.0316 µM, first compound 0.0949 µM) of 71.5%. It also gave a viability, T/C (second compound 0.0316 µM, first compound 0.3 µM) of 58.4%, a viability, T/C (second compound 0.0316 µM, first compound 0.949 µM) of 59.3% and a viability, T/C (second compound 0.0316 µM, first compound 3 µM) of 30%. For the same compound, the viability, T/C (second compound 0.1 µM, first compound 0.00949 µM) was 67.1%, the viability, T/C (second compound 0.1 µM, first compound 0.03 µM) was 64.7% and the viability, T/C (second compound 0.1 µM, first compound 0.0949 µM) was 60.4%. It also gave a viability, T/C (second compound 0.1 µM, first compound 0.3 µM) of 52.1%, a viability, T/C (second compound 0.1 µM, first compound 0.949 µM) of 38.6% and a viability, T/C (second compound 0.1 µM, first compound 3 µM) of 17%. The viability, T/C (second compound 0.316 µM, first compound 0.00949 µM) was 23.6%, the viability, T/C (second compound 0.316 µM, first compound 0.03 µM) was 24% and the viability, T/C (second compound 0.316 µM, first compound 0.0949 µM) was 20.3%. The viability, T/C (second compound 0.316 µM, first compound 0.3 µM) was 12.3%, the viability, T/C (second compound 0.316 µM, first compound 0.949 µM) was 5.84% and the viability, T/C (second compound 0.316 µM, first compound 3 µM) was 1.04%. It also gave a viability, T/C (second compound 1 µM, first compound 0.00949 µM) of 2.31%, a viability, T/C (second compound 1 µM, first compound 0.03 µM) of 2.24% and a viability, T/C (second compound 1 µM, first compound 0.0949 µM) of 4.13%. For the same compound, the viability, T/C (second compound 1 µM, first compound 0.3 µM) was 2.36%, the viability, T/C (second compound 1 µM, first compound 0.949 µM) was 1.39% and the viability, T/C (second compound 1 µM, first compound 3 µM) was 0.76%. The viability, T/C (second compound 3.16 µM, first compound 0.00949 µM) was 2.18%, the viability, T/C (second compound 3.16 µM, first compound 0.03 µM) was 4.18% and the viability, T/C (second compound 3.16 µM, first compound 0.0949 µM) was 3.49%. The viability, T/C (second compound 3.16 µM, first compound 0.3 µM) was 1.2%, the viability, T/C (second compound 3.16 µM, first compound 0.949 µM) was 0.81% and the viability, T/C (second compound 3.16 µM, first compound 3 µM) was 1.01%. The viability, T/C (second compound 10 µM, first compound 0.00949 µM) was 2.14%, the viability, T/C (second compound 10 µM, first compound 0.03 µM) was 1.92% and the viability, T/C (second compound 10 µM, first compound 0.0949 µM) was 1.56%. The viability, T/C (second compound 10 µM, first compound 0.3 µM) was 1.44%, the viability, T/C (second compound 10 µM, first compound 0.949 µM) was 2% and the viability, T/C (second compound 10 µM, first compound 3 µM) was 0.3%.
With C=C(F)C(=O)N1CCN(c2nc(OCC3CCCN3C)nc3c2CCN(c2cccc4cccc(Cl)c24)C3)CC1CC#N (configuration not stated) the viability, T/C (compound 0.0316 µM) was 64.5% and 64.8%, the viability, T/C (compound 0.1 µM) was 50.8% and 64.2% and the viability, T/C (compound 0.316 µM) was 48.9% and 63%. For the same compound, the viability, T/C (compound 1 µM) was 69.4% and 61.5%, the viability, T/C (compound 3.16 µM) was 66.8% and 77.9% and the IC50 (curve of compound) was 3990 nM and > 10000 nM.
With CC1COCCN1c1cc(C2(S(C)(=N)=O)CC2)nc(-c2ccnc3[nH]ccc23)n1 (configuration not stated) + CN1CCN(c2cc(C(=O)Nc3cc4cc(-c5cnn(C)c5)ccc4cn3)ccn2)CC1 the IC50 [1] was 1820 nM, the IC50 [2] was 701 nM and the IC50 [3] was under 31.6 nM. It also gave an IC50 [4] of under 31.6 nM, an IC50 [5] of under 31.6 nM and an IC50 [6] of under 31.6 nM. For the same compound, the viability, T/C (second compound 0.0316 µM, first compound 0.0316 µM) was 98.2%, the viability, T/C (second compound 0.0316 µM, first compound 0.1 µM) was 103% and the viability, T/C (second compound 0.0316 µM, first compound 0.316 µM) was 79.5%. The viability, T/C (second compound 0.0316 µM, first compound 1 µM) was 65.8%, the viability, T/C (second compound 0.0316 µM, first compound 3.16 µM) was 36.7% and the viability, T/C (second compound 0.0316 µM, first compound 10 µM) was 25.6%. It also gave a viability, T/C (second compound 0.1 µM, first compound 0.0316 µM) of 66.9%, a viability, T/C (second compound 0.1 µM, first compound 0.1 µM) of 77.2% and a viability, T/C (second compound 0.1 µM, first compound 0.316 µM) of 67%. For the same compound, the viability, T/C (second compound 0.1 µM, first compound 1 µM) was 41.8%, the viability, T/C (second compound 0.1 µM, first compound 3.16 µM) was 31% and the viability, T/C (second compound 0.1 µM, first compound 10 µM) was 23.6%. For the same compound, the viability, T/C (second compound 0.316 µM, first compound 0.0316 µM) was 24.6%, the viability, T/C (second compound 0.316 µM, first compound 0.1 µM) was 29.2% and the viability, T/C (second compound 0.316 µM, first compound 0.316 µM) was 22.1%. The viability, T/C (second compound 0.316 µM, first compound 1 µM) was 21.4%, the viability, T/C (second compound 0.316 µM, first compound 3.16 µM) was 17.4% and the viability, T/C (second compound 0.316 µM, first compound 10 µM) was 15.1%. For the same compound, the viability, T/C (second compound 1 µM, first compound 0.0316 µM) was 3.95%, the viability, T/C (second compound 1 µM, first compound 0.1 µM) was 3.37% and the viability, T/C (second compound 1 µM, first compound 0.316 µM) was 3.9%. For the same compound, the viability, T/C (second compound 1 µM, first compound 1 µM) was 3.84%, the viability, T/C (second compound 1 µM, first compound 3.16 µM) was 2.35% and the viability, T/C (second compound 1 µM, first compound 10 µM) was 2.79%. For the same compound, the viability, T/C (second compound 3.16 µM, first compound 0.0316 µM) was 4.84%, the viability, T/C (second compound 3.16 µM, first compound 0.1 µM) was 4.43% and the viability, T/C (second compound 3.16 µM, first compound 0.316 µM) was 4.15%. The viability, T/C (second compound 3.16 µM, first compound 1 µM) was 3.73%, the viability, T/C (second compound 3.16 µM, first compound 3.16 µM) was 3.53% and the viability, T/C (second compound 3.16 µM, first compound 10 µM) was 4.26%. The viability, T/C (second compound 10 µM, first compound 0.0316 µM) was 4.2%, the viability, T/C (second compound 10 µM, first compound 0.1 µM) was 3.8% and the viability, T/C (second compound 10 µM, first compound 0.316 µM) was 4.37%. It also gave a viability, T/C (second compound 10 µM, first compound 1 µM) of 3.26%, a viability, T/C (second compound 10 µM, first compound 3.16 µM) of 4.39% and a viability, T/C (second compound 10 µM, first compound 10 µM) of 2.79%.
For CCc1c2c(nc3ccc(O)cc13)-c1cc3c(c(=O)n1C2)COC(=O)[C@]3(O)CC, the viability, T/C (compound 0.00316 µM) was 90.2% and 92.5%, the viability, T/C (compound 0.01 µM) was 49.5% and 42.7% and the viability, T/C (compound 0.0316 µM) was 34.2% and 29.5%. For the same compound, the viability, T/C (compound 0.1 µM) was 35.9% and 30.6%, the viability, T/C (compound 0.316 µM) was 26.4% and 30.6% and the viability, T/C (compound 1 µM) was 26.2% and 20.2%. The IC50 (curve of compound) was 10.2 nM and 8.51 nM.
